Values joined by “and” are separate entries in the source; they are usually repeats but may differ in a detail not shown here. Identical values can stand only once.
Legend:
[1] = system: Stroke Prone Spontaneously Hypertensive Rat (SHR-SP); test: Blood pressure in stroke prone spontaneously hypertensive rat (SHR-SP), tail cuff plethysmography; assay type: in vivo
Method: Methods: SHR-SP were bred in the animal facilities of New York Medical College and maintained on normal rat chow and non-saline drinking water (i.e., tap water). […] Indirect measurements of systolic blood pressure were assessed by tail cuff plethysmography.

[2] = system: captopril-treated, saline-drinking SHRSP; test: Protocol 2: Angiotensin II-induced renal damage in captopril-treated saline-drinking SHRSP; assay type: in vivo, male SHRSP/A3N
Method: Animals. Studies were conducted in accordance with institutional guidelines using male SHRSP/A3N (generations F-75 to F-78), n = 37, from our local colony. These animals were bred from NIH stock, derived from the SHRSP/A3N substrain described originally by Okamoto and coworkers (Okamoto K et al. Circ. Res. 34 and 35 (suppl I):I-143-I-153.). All animals were housed in a room maintained on a 12:12-h light:dark-cycle and an ambient temperature of 22 ± 1°C in the Animal Care Facility at New York Medical College. Rats were weaned at 4 weeks of age and allowed free access to Purina Lab Chow 5001 (Ralston Purina, St. Louis, MO) and tap water until the initiation of experimental protocols.
SHRSP were placed on Stroke-Prone Rodent Diet (#39-288, Zeigler Bros Inc., Gardners, PA) and 1% NaCl drinking solution ad libitum starting at 8.3 weeks of age. […] Animals were handled and weighed daily. Urine samples were collected for the assessment of proteinuria. Systolic blood pressure and heart rate were measured each week. After 2 weeks of treatment, animals were decapitated, trunk blood was collected into chilled EDTA tubes, and the kidneys were removed, blotted dry, and immediately weighed. Coronal sections of kidney were fixed and later processed for light microscopic evaluation.
Assays and Analyses. Systolic blood pressure and heart rate of awake animals were measured by tail-cuff plethysmography using a Natsume KN-210 manometer and tachometer (Peninsula Laboratories Inc., Belmont, CA). Rats were warmed at 37°C for 10 min and allowed to rest quietly in a Lucite chamber before measurement of blood pressure. Measurements of urine volume were made gravimetrically. Urinary protein concentration was determined by the sulfosalicylic acid turbidity method. Plasma aldosterone was measured by radioimmunoassay using ^125I-aldosterone as a tracer (Coat-a Count Aldosterone, Diagnostic Products Co., Los Angeles, CA).
Histology. Kidneys were preserved in 10% phosphate-buffered formalin. Coronal sections (2-3 µm) were stained with hematoxylin and eosin and examined by light microscopy in a blinded fashion as previously described (Stier CT et al. J Pharmacol Exp Ther (1992) 260:1410-1415). Glomerular damage was categorized as ischemic or thrombotic. Ischemic lesions were defined as retraction of glomerular capillary tufts with or without appreciable mesangiolysis. Glomerular thrombotic lesions were defined as any one of a combination of the following: segmental to global fibrinoid necrosis, focal thrombosis of glomerular capillaries, swelling and proliferation of intracapillary (endothelial and mesangial) and/or extracapillary cells (crescents), and expansion of reticulated mesangial matrix with or without significant hypercellularity. […] Vascular thrombotic lesions were defined as any one or a combination of the following: mural fibrinoid necrosis, extravasation and fragmentation of red blood cells, and luminal and/or mural thrombosis. Proliferative arteriopathy was characterized by proliferation of markedly swollen myointimal cells with swollen round to ovoid vesicular nuclei surrounded by mucinous extracellular matrix ("onion skinning") often resulting in nodular thickening. Vascular damage was expressed as the number of arteries and arterioles with lesions per 100 glomeruli. The presence of casts and tubular (ischemic) retraction and simplification was assessed semiquantitatively.
Statistical Analysis. Significant effects with respect to treatment and time were determined by two-way analysis of variance. Data with only one grouping variable were analyzed statistically by Student's unpaired t tests. When more than two groups were compared, one-way analysis of variance was performed followed by the post-hoc Newman-Keul's multiple comparison test. Data were analyzed using version 2.01 of the GraphPad Prism statistical software package (GraphPad Software Inc., San Diego, CA). P < .05 was considered statistically significant. Data are reported as mean ± SEM.

[3] = system: patients with hypertension; test: Clinical efficacy in hypertension: randomized double-blind study, cuff and ambulatory blood pressure; assay type: in vivo
Method: A multicenter, randomized, double-blind, parallel group study was conducted in patients with hypertension. […] The study consisted of a two-week pretreatment period for completion of screening procedures and discontinuation of any current antihypertensive medication(s). The screening period was followed by a four-week single-blind placebo lead-in treatment period.
The primary efficacy measure was the change from baseline in cuff diastolic blood pressure measured at trough as compared to placebo. Secondary efficacy measures included changes in cuff assessed trough systolic blood pressure and changes in average 24-hour diastolic and systolic blood pressure assessed by ambulatory blood pressure monitoring. Safety was assessed by conducting routine clinical lab tests, physical exams, ECGs, and monitoring for adverse events.

[4] = Form H content of dried solids by X-ray powder diffraction (XPRD); assay type: physicochemical
[5] = system: L-NAME/ANG-II-induced renal injury in rats; settings: cited from earlier work
[6] = captopril plus vehicle, or captopril plus angiotensin II plus eplerenone

COC(=O)[C@@H]1CC2=CC(=O)CC[C@]2(C)[C@@]23O[C@@H]2C[C@@]2(C)[C@@H](CC[C@@]24CCC(=O)O4)[C@H]13 [Eplerenone, Pregn-4-ene-7,21-dicarboxylic acid, 9,11-epoxy-17-hydroxy-3-oxo-, γ-lactone, methyl ester, (7α, 11α, 17β)-]
systolic blood pressure ([1]; Week 13 (initiation), 100 mg/kg/day p.o. BID): 201.4 ± 1.6 mmHg | systolic blood pressure ([1]; Week 14, 100 mg/kg/day p.o. BID): 202.8 ± 1.8 mmHg | systolic blood pressure ([1]; Week 15, 100 mg/kg/day p.o. BID): 208.0 ± 4.2 mmHg | systolic blood pressure ([1]; Week 16, 100 mg/kg/day p.o. BID): 203.1 ± 6.2 mmHg | Glomerular damage, Ischemic ([2]; Captopril 50 mg/kg/d + vehicle, or CAP, Angiotensin II 25 ng/min + Eplerenone 100 mg/kg/d, 2 weeks): 3.0 ± 1.0 lesions/100 glomeruli | Glomerular damage, Thrombotic ([2]; as Table A-8B, 2 weeks): 1.0 ± 0.3 lesions/100 glomeruli | Glomerular damage, Total ([2]; as Table A-8B, 2 weeks): 3.0 ± 1.0 lesions/100 glomeruli | Renal arteriopathy, Proliferative ([2]; as Table A-8B, 2 weeks): 0.1 ± 0.1 lesions/100 glomeruli | Renal arteriopathy, Thrombotic ([2]; as Table A-8B, 2 weeks): 4.0 ± 1.0 lesions/100 glomeruli | Renal arteriopathy, Total ([2]; as Table A-8B, 2 weeks): 4.0 ± 1.0 lesions/100 glomeruli | renal damage ([2]; captopril plus angiotensin II plus eplerenone 100 mg/kg/d): 3 ± 1% | Preterminal systolic blood pressure [2, 6]: 231 ± 5 mm Hg | tubules with ischemic retraction and simplification [2, 6]: 2.5 ± 0.9% | proteinuria (urinary protein excretion) ([2]; end of study (2 weeks), captopril 50 mg/kg/d plus vehicle, or captopril plus angiotensin II 25 ng/min plus eplerenone 100 mg/kg/d): 28 ± 5 mg/day | ABPM DBP, adjusted mean change from baseline to final visit ([3]; 50 mg/day (25 BID)): -4.1 mm Hg | ABPM SBP, adjusted mean change from baseline to final visit ([3]; 50 mg/day (25 BID)): -7.5 mm Hg | Cuff SBP, adjusted mean change from baseline to final visit ([3]; 50 mg/day (25 BID)): -8.1 mm Hg | Cuff DBP, adjusted mean change from baseline to final visit ([3]; 50 mg/day (25 BID), eight weeks): -4.4 mm Hg | ABPM DBP, adjusted mean change from baseline to final visit ([3]; 50 mg/day (50 QD)): -5.1 mm Hg | ABPM SBP, adjusted mean change from baseline to final visit ([3]; 50 mg/day (50 QD)): -6.2 mm Hg | Cuff DBP, adjusted mean change from baseline to final visit ([3]; 50 mg/day (50 QD)): -4.5 mm Hg | Cuff SBP, adjusted mean change from baseline to final visit ([3]; 50 mg/day (50 QD)): -4.4 mm Hg | ABPM DBP, adjusted mean change from baseline to final visit ([3]; 100 mg/day (50 BID)): -6.6 mm Hg | ABPM SBP, adjusted mean change from baseline to final visit ([3]; 100 mg/day (50 BID)): -11.6 mm Hg | Cuff DBP, adjusted mean change from baseline to final visit ([3]; 100 mg/day (50 BID)): -7.8 mm Hg | Cuff SBP, adjusted mean change from baseline to final visit ([3]; 100 mg/day (50 BID)): -11.7 mm Hg | ABPM DBP, adjusted mean change from baseline to final visit ([3]; 100 mg/day (100 QD)): -5.6 mm Hg | ABPM SBP, adjusted mean change from baseline to final visit ([3]; 100 mg/day (100 QD)): -9.6 mm Hg | Cuff DBP, adjusted mean change from baseline to final visit ([3]; 100 mg/day (100 QD)): -4.4 mm Hg | Cuff SBP, adjusted mean change from baseline to final visit ([3]; 100 mg/day (100 QD)): -7.9 mm Hg | ABPM DBP, adjusted mean change from baseline to final visit ([3]; 400 mg/day (200 BID)): -9.0 mm Hg | ABPM SBP, adjusted mean change from baseline to final visit ([3]; 400 mg/day (200 BID)): -16.1 mm Hg | Cuff DBP, adjusted mean change from baseline to final visit ([3]; 400 mg/day (200 BID)): -8.9 mm Hg | Cuff SBP, adjusted mean change from baseline to final visit ([3]; 400 mg/day (200 BID)): -14.8 mm Hg | ABPM DBP, adjusted mean change from baseline to final visit ([3]; 400 mg/day (400 QD)): -7.7 mm Hg | ABPM SBP, adjusted mean change from baseline to final visit ([3]; 400 mg/day (400 QD)): -13.7 mm Hg | Cuff DBP, adjusted mean change from baseline to final visit ([3]; 400 mg/day (400 QD)): -8.7 mm Hg | Cuff SBP, adjusted mean change from baseline to final visit ([3]; 400 mg/day (400 QD)): -15.0 mm Hg | Peak to trough ratios ([3]; QD and BID regimens, all doses): 1.04 - 1.10 | gynecomastia ([3]; eight-week double-blind treatment): no reports of gynecomastia | tolerability ([3]; incidence of adverse events similar to placebo): well tolerated | Weight Percent Form H (XPRD) ([4]; cooling rate (0) 1.5°C/min, cooling endpoint (0) 25°C, impurity level (0) 100.8% purity starting material (footnote as printed), replicate runs): <3% Weight Percent and 5 Weight Percent | Weight Percent Form H (XPRD) ([4]; cooling rate (+) 3°C/min, cooling endpoint (-) 5°C, impurity level (+) 89.3% purity starting material): 9 Weight Percent | L-NAME/ANG-II-induced renal injury [5]: prevents L-NAME/ANG-II-induced renal injury

Reference: patent publication EP1289507B1, “USE OF AN ALDOSTERONE ANTAGONIST FOR THE TREATMENT OR PROPHYLAXIS OF ALDOSTERONE-MEDIATED PATHOGENIC EFFECTS” (priority 2000, dated 2001)
